# Experimental data from US6313376A, “Maize aquaporins and uses thereof” (Pioneer Hi-Bred International, Inc., priority 1999, dated 2001).
# Assays:
# [1] = test system: ZmPIP2; assay: Osmotic water permeability assay, water channel activity of ZmPIP2 in the presence of cAMP agonists or phosphatase inhibitor; type: cell-based, Zea mays; conditions: cAMP agonists to activate cellular PKA, or protein phosphatase inhibitor
# Protocol: (§1) Xenopus laevis oocytes were prepared and injected as previously described (Daniels et al., 1996). The osmotic water permeability assay was conducted as previously described (Weig et al., 1997).
# A number of studies indicate that the activity of aquaporins may be regulated by phosphorylation. For instance, -TIP, a seed specific vacuolar protein from bean, is phosphorylated in vivo and in vitro and the phosphorylation regulates its water channel activity in Xenopus oocytes (Maurel et al., 1993). […] Water channel activity of ZmPIP2 was tested in the presence of (1) cAMP agonists (8-bromoadenosine 3', 5'-cyclic monophosphate, forksolin and 3-isobutyl-1-methylxanthine) to increase the cytosolic cAMP concentration and activate cellular PKA and (2) protein phosphatase inhibitor okadeic acid.
# [2] = target: T1, ZmPIP3 (Zea mays, UniProt Q9XF58); assay: Osmotic water permeability assay (Xenopus oocyte swelling), inhibition of water transport through ZmPIP3; type: cell-based
# T1 construct: plasma membrane swelling assay; insert borders and tag not described
# T1 sequence (Q9XF58 1-284): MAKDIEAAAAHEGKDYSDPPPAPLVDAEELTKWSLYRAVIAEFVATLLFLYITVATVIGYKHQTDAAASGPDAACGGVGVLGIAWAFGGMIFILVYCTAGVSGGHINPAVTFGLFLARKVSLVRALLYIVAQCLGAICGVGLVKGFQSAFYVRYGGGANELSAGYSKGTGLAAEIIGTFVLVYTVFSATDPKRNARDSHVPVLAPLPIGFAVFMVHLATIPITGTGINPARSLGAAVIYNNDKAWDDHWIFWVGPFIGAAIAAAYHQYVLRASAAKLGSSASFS
# Protocol: as §1
# (§2) The biological activity of aquaporins is usually determined with Xenopus oocyte swelling assays (Maurel et al, 1993). MIP cRNA is injected into oocytes and after a 3-day incubation the oocytes are moved to a hypotonic medium. If water channel proteins are present in the plasma membrane, the oocytes swell and burst much faster than the control oocytes. […] The osmotic water permeability coefficient (Pf) of the oocyte membrane increased 8-fold over the control. Mercurial compounds are characteristic inhibitors of many water-channel proteins. Water transport through ZmPIP3 is inhibited 50% by 1 mM mercuric chloride and this inhibition is reversed by the reducing agent -mercaptoethanol.
# [3] = test system: Xenopus laevis oocytes; assay: Osmotic water permeability assay of cRNA-injected oocytes (Pf of the oocyte membrane); type: cell-based; conditions: cRNA-injected oocytes moved to hypotonic medium after 3-day incubation; versus control oocytes
# Protocol: as §1, §2
# [4] = test system: Xenopus laevis oocytes; assay: Radiolabeled solute uptake assay in ZmPIP2-expressing oocytes; type: cell-based; conditions: 1 mM solute, 21° C., 0, 15 and 30 min
# Protocol: Two to three days after water or mRNA injection, groups of 5 oocytes were incubated at 21° C. in […] of Barth's solution containing 0.1 to 0.5 MBq/ml of the radiolabeled solutes ([^14 C]glycerol, […]; [^14 C]choline, 2.0 GBq/mmol; [^14 C]ethanol, 0.144 GBq/mmol; [^14 C]urea, 2.0 GBq/mmol or [^14 C]labeled amino acid mixture without methionine, 1.85 MBq/ml). Nonradioactive solutes were added to give a 1 mM final concentration. After 0, 15 and 30 min, the oocytes were washed rapidly three times in ice-cold Barth's solution, and individual oocytes were dissolved in 5% SDS for scintillation counting.
# Although many MIP proteins are aquaporin, some of them can transport small neutral solutes, exclusively or in addition to water. For instance, tobacco NtTIPa and NtAQP1 transport glycerol in addition to water (Gerbeau et al., 1999), whilst the bacterial GIpF is a selective glycerol facilitator. Transport essays were performed in ZmPIP2-expressing oocytes with a series of labeled solutes including glycerol, urea, ethanol, choline and amino acids.
molecule,measurement,setting,value
C=C[C@@]1(C)CC(=O)[C@]2(O)[C@@]3(C)[C@@H](O)CCC(C)(C)[C@@H]3[C@H](O)[C@H](OC(C)=O)[C@@]2(C)O1 [forksolin],effect on Pf of ZmPIP2-expressing oocytes,[1],None of these treatments affected the Pf
okadeic acid,effect on Pf of ZmPIP2-expressing oocytes,[1],None of these treatments affected the Pf
CC(C)Cn1c(=O)n(C)c(=O)c2[nH]cnc21 [3-isobutyl-1-methylxanthine],effect on Pf of ZmPIP2-expressing oocytes,[1],None of these treatments affected the Pf
OCCS [-mercaptoethanol],reversal of mercuric chloride inhibition of ZmPIP3 water transport,[2]; reducing agent added after 1 mM mercuric chloride inhibition,reversed
"Nc1ncnc2c1nc(Br)n2[C@@H]1O[C@@H]2COP(=O)(O)O[C@H]2[C@H]1O [8-bromoadenosine 3', 5'-cyclic monophosphate]",effect on Pf of ZmPIP2-expressing oocytes,[1],None of these treatments affected the Pf
[Cl][Hg][Cl] [mercuric chloride],inhibition of water transport through ZmPIP3,"[2]; 1 mM mercuric chloride, ZmPIP3 cRNA-injected Xenopus oocytes",50%
"ZmPIP3: maize aquaporin; polypeptide of SEQ ID NO: 4, expressed from cRNA in Xenopus oocytes (protein) MAKDIEAAAAHEGKDYSDPPPAPLVDAEELTKWSLYRAVIAEFVATLLFLYITVATVIGYKHQTDAAASGPDAACGGVGVLGIAWAFGGMIFILVYCTAGVSGGHINPAVTFGLFLARKVSLVRALLYIVAQCLGAICGVGLVKGFQSAFYVRYGGGANELSAGYSKGTGLAAEIIGTFVLVYTVFSATDPKRNARDSHVPVLAPLPIGFAVFMVHLATIPITGTGINPARSLGAAVIYNNDKAWDDHWIFWVGPFIGAAIAAAYHQYVLRASAAKLGSSASFS",increase of osmotic water permeability coefficient (Pf) of the oocyte membrane over the control,[3],8 fold
"ZmPIP2: maize aquaporin designation; polypeptide of SEQ ID NO: 2, expressed from cRNA in Xenopus oocytes (protein) MEGKEEDVRLGANKFSERQPIGTAAQGAADDKDYKEPPPAPLFEPGELKSWSFYRAGIAEFVATFLFLYITILTVMGVSKSTSKCATVGIQGIAWSFGGMIFALVYCTAGISGGHINPAVTFGLFLARKLSLTRALFYIIMQCLGAICGAGVVKGFQQGLYMGNGGGANVVAPGYTKGDGLGAEIVGTFILVYTVFSATDAKRNARDSHVPILAPLPIGFAVFLVHLATIPITGTGINPARSLGAAIIYNRDHAWNDHWIFWVGPFIGAALAAIYHQVIIRAIPFKSR","transport of labeled solutes (glycerol, urea, ethanol, choline, amino acids) versus water-injected oocytes",[4],None of the solutes tested were preferentially transported
"AtRD28: plasma membrane AtRD28 aquaporin (Daniels et al., 1994), positive control in oocytes (protein, UniProt P30302 1-285, looked up) Aquaporin PIP2-3: MAKDVEGPDGFQTRDYEDPPPTPFFDAEELTKWSLYRAVIAEFVATLLFLYVTVLTVIGYKIQSDTKAGGVDCGGVGILGIAWAFGGMIFILVYCTAGISGGHINPAVTFGLFLARKVSLIRAVLYMVAQCLGAICGVGFVKAFQSSHYVNYGGGANFLADGYNTGTGLAAEIIGTFVLVYTVFSATDPKRNARDSHVPVLAPLPIGFAVFMVHLATIPITGTGINPARSFGAAVIFNKSKPWDDHWIFWVGPFIGATIAAFYHQFVLRASGSKSLGSFRSAANV",increase of osmotic water permeability coefficient (Pf) of the oocyte membrane over the control,[3],8 fold
